{"source": "patent US10166229B2", "about": "“Compounds and methods for the treatment of cancer” (The Board of Trustees of the University of Illinois, priority 2005, dated 2019)", "key": {"[1]": {"system": "cells from adjacent non-cancerous tissue", "experiment": "Cell death in cells from adjacent non-cancerous colon tissue", "format": "cell-based, human", "from_the_text": "To test this direct, small molecule-mediated procaspase-3 activation strategy in clinical isolates of cancer, we obtained freshly resected colon tumors (together with adjacent non-cancerous tissue) from 18 patients from Carle Foundation Hospital (Urbana, Ill.)."}, "[2]": {"biological_target": "procaspase-3 (Homo sapiens (Human), UniProt P42574)", "sequence (P42574 whole entry)": "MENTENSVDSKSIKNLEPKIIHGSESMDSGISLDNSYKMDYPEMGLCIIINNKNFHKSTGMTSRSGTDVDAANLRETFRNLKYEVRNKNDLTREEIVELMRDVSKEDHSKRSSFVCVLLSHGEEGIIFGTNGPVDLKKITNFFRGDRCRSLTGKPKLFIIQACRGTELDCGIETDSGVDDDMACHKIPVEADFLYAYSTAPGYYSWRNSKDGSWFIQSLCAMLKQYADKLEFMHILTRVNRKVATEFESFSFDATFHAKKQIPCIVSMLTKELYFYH", "experiment": "Western blot of in vitro procaspase-3 activation by DX compounds", "format": "biochemical", "conditions": "50 micromolar compound, about 35 nanomolar procaspase-3, 8 hr", "protocol": "Certain compounds were also tested for the ability to effect in vitro activation of procaspase-3."}, "[3]": {"biological_target": "procaspase-3 mutant DDA (Homo sapiens, UniProt P42574, D181A)", "sequence (P42574 29-175 limits assumed)": "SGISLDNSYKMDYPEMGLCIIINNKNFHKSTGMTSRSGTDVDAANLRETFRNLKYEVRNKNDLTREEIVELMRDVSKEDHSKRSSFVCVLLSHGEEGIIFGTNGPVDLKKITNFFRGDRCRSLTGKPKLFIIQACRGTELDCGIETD", "sequence (P42574 176-277 D181A limits assumed)": "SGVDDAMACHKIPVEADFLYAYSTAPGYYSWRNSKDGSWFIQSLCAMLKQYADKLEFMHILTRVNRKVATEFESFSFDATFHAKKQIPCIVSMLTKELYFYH", "experiment": "Activation of safety catch mutant procaspase-3 (DDA)", "format": "biochemical", "from_the_text": "Safety catch mutations. The DDD procaspase-3 safety catch (SEQ ID NO:1; SEQ ID NO:2; SEQ ID NO:9) was mutated to ADD (SEQ ID NO:3, SEQ ID NO:4, SEQ ID NO:10), DAD (SEQ ID NO:5, SEQ ID NO:6, SEQ ID NO:11) and DDA (SEQ ID NO:7, SEQ ID NO:8, SEQ ID NO:12) using the quickchange strategy with the following primers, gacagacagtggtgttgCGgatgacatggcgtgtcataaaatacc (SEQ ID NO:13), gacagacagtggtgttgatgCtgacatggcgtgtcataaaatacc (SEQ ID NO:14) and gacagacagtggtgttgatgatgCcatggcgtgtcataaaatacc (SEQ ID NO:15) respectively. See also FIG. 9 and FIG. 10. Mutated bases are underlined and capitalized. All mutant plasmids were sequenced to ensure proper sequence throughout the gene. All mutant plasm ids were expressed exactly as wild-type procaspase-3 as described above. […] The plate was then incubated for 12 hours at 37° C. 10 μL of a 2 mM solution of Ac-DEVD-pNA (SEQ ID NO: 28) in caspase assay buffer was then added to each well. The plate was read every 2 minutes at 405 nm for 2 hours in a Spectra Max Plus 384 well plate reader. The slope of the linear portion for each well was determined and the fold increase in activity for each mutant was calculated."}}, "note": "Several values for one entry are separate records, joined by “and”; a condition that tells them apart may be missing. Equal values may be shown once. Read-outs that look alike come from different tables or passages of the source.", "data": [{"smiles": "C=CCc1cccc(/C=N/NC(=O)CN2CCN(Cc3ccccc3)CC2)c1O", "note": "[PAC-1]", "values": [{"measurement": "IC50", "setting": "[1]; Homo sapiens, read-out: PAC-1, IC50, Normal (adjacent non-cancerous tissue), per patient, 18 patients", "result": "5.02 to 9.98", "unit": "µM"}, {"measurement": "IC50", "setting": "[1]; read-out: PAC-1, IC50, Normal (adjacent non-cancerous tissue), per patient, 18 patients", "result": "6.88 µM and 6.28 µM and 7.34 µM and 5.67 µM and 6.54 µM and 9.98 µM and 5.94 µM and 5.63 µM and 5.5 µM and 7.58 µM and 5.96 µM and 5.02 µM and 5.17 µM and 6.39 µM and 6.78 µM and 9.79 µM and 6.61 µM and 9.5 µM"}, {"measurement": "in vitro activation of procaspase-3 (Western blot) relative to control", "setting": "[2]", "result": "substantial activity levels"}, {"measurement": "EC50", "setting": "[3]", "result": 113, "unit": "µM"}]}]}
